Data published in ChEMBL document CHEMBL3637782, “GSK Tres Cantos Follow-up TB Screening Data” (2016).
Converted amounts (≈) assume the structure as drawn.

Assays:
[1] = GSK_TB: AVG_CHROM_LOGP; type: physicochemical
[2] = GSK_TB: Kinetic solubility of the compound in phosphate buffered saline at pH 7.4 after 1 hr by CLND method; type: physicochemical
[3] = GSK_TB: Lipophilicity, log D of the compound at pH 7.4 by ChromlogD analysis; type: physicochemical; settings: buffer
[4] = system: Mycobacterium tuberculosis H37Rv; experiment: GSK_TB: Inhibition of the intracellular growth of Mycobacterium tuberculosis (pXC50); type: functional, ATCC25618
[5] = system: Mycobacterium tuberculosis H37Rv; experiment: GSK_TB: Minimum inhibitory concentration against H37Rv stain of Mycobacterium tuberculosis using MABA method; type: functional; settings: ATCC25618
HepG2 = experiment: GSK_TB: The cytotoxicity against HepG2 cells expressed as IC50; type: functional, cell-based; settings: Homo sapiens

Compound | Lipophilicity [1] | solubility kinetic at 1 h [2] [µg/mL] | Lipophilicity [3] | pXC50 [4] | MIC [5] [µM] | IC50 (HepG2) [µM]
CCCC/C=C/c1cc2ccncc2cc1OC1CCNCC1 | 7.3475 | 36 (≈ 116 µM) | 3.61 | 5.9 | 1.6 (≈ 0.497 µg/mL) | 16
O=C(NCc1ccco1)N1CCN(Cc2ccc(Cl)s2)CC1 | 4.8996 | 98 (≈ 288 µM) | 4.82 | 5.6 | 2 (≈ 0.68 µg/mL) | > 100
NCC(c1cccs1)S(=O)(=O)c1ccccc1 (configuration not stated) | 2.5334 | ≥ 134 | 2.5 | – | 2 (≈ 0.535 µg/mL) | 32
NS(=O)(=O)c1ccc(Nc2cnc3ccccc3n2)cc1 | 2.5171 | 112 (≈ 373 µM) | 1.07 | <4.3 | 2 (≈ 0.601 µg/mL) | > 100
CNc1snc(C)c1C(=O)NCCOc1ccc(OC)cc1 | 4.2469 | 121 (≈ 376 µM) | 4.24 | 5.7 | 2.5 (≈ 0.804 µg/mL) | > 100
Nc1ccc(C(O)CNCCc2ccccc2)cc1O (configuration not stated) | 1.7338 | 53 (≈ 195 µM) | 0.97 | 4.97 | 2.9 (≈ 0.79 µg/mL) | 50
O=C(Nc1nc2c(s1)CCCc1cccnc1-2)c1ccccc1C(F)(F)F | 5.2587 | 9 (≈ 23.1 µM) | 5.26 | 6.2 | 3.7 (≈ 1.44 µg/mL) | 79
NC(=O)c1ccc(CN(C2CC2)S(=O)(=O)c2ccccc2F)cc1 | 3.79 | 133 (≈ 382 µM) | 3.75 | 6.7 | 3.75 (≈ 1.31 µg/mL) | > 100
NC(=O)c1cc2ccc(CC(=O)c3cccs3)cc2s1 | 3.7247 | 8 (≈ 26.5 µM) | 3.62 | 6 | 3.8 (≈ 1.15 µg/mL) | > 100
Clc1nnc(N2CCCC2)c2ccccc12 | 4.4101 | ≥ 100 | 4.41 | 5.8 | 4 (≈ 0.935 µg/mL) | > 100
Cc1nc(Nc2cnn(Cc3ccccc3F)c2)c2nn(C)c(C)c2n1 | 3.4146 | 23 (≈ 65.5 µM) | 3.41 | 6 | 4 (≈ 1.41 µg/mL) | > 100
CCOCn1ccc(NS(=O)(=O)c2ccc(N)cc2)nc1=O | 0.7057 | 52 (≈ 160 µM) | 0.66 | 4.9 | 4.7 (≈ 1.52 µg/mL) | > 100
FC(F)(F)Oc1ccc(-c2cc3ccncc3cc2OC2CCNCC2)cc1 | 6.8742 | 82 (≈ 211 µM) | 3.47 | 5.5 | 5 (≈ 1.94 µg/mL) | 16
CCCCNCC1COc2ccc(OC)cc2C1=O (configuration not stated) | 5.6014 | 118 (≈ 448 µM) | 2.99 | 5.3 | 5 (≈ 1.32 µg/mL) | 12
COc1ccc(Nc2nc(N[C@@H]3CCNC3)nc3cc[nH]c(=O)c23)cc1NC(=O)c1ccccc1 | 3.1698 | 106 (≈ 226 µM) | 2.41 | 5.5 | 5 (≈ 2.36 µg/mL) | 25
N#Cc1ncn(-c2ccc3nnc(C(F)(F)F)n3n2)n1 | 3.3167 | ≥ 105 | 3.31 | <4.3 | 5 (≈ 1.4 µg/mL) | > 100

Compound | Lipophilicity [1] | solubility kinetic at 1 h [2] [µg/mL] | Lipophilicity [3] | pXC50 [4] | MIC [5] [µM] | IC50 (HepG2) [µM]
Cn1cc(CCNC(=O)Nc2ccc(N3CCCCC3)nc2)cn1 | 2.974 | – | 2.97 | 4.7 | 5 (≈ 1.64 µg/mL) | > 100
CC(C)N(C(=O)CNc1ccccc1Nc1ccccc1)c1ccccc1 | 8.1308 | 8 (≈ 22.3 µM) | 7.73 | 5.7 | 5.6 (≈ 2.01 µg/mL) | 50
COc1ccc(Nc2ncccc2N)cc1 | 1.44 | 18 (≈ 83.6 µM) | 1.45 | 6.2 | 5.6 (≈ 1.21 µg/mL) | 63
Fc1ccc(Cc2nnc(-c3ccnc(Nc4ccc(OCCN5CCOCC5)cc4)n3)[nH]2)cc1 | 3.8389 | 69 (≈ 145 µM) | 3.84 | 5.8 | 5.6 (≈ 2.66 µg/mL) | 40
CC1CC1c1ccc(CN2CCc3nc(Nc4ccccc4)sc3CC2)o1 (configuration not stated) | 8.1798 | 54 (≈ 142 µM) | 7.64 | – | 5.6 (≈ 2.13 µg/mL) | 40
Cc1ccc2oc(SCC(=O)Nc3nccs3)nc2n1 | 3.0066 | 31 (≈ 101 µM) | 3.01 | <4.3 | 5.6 (≈ 1.72 µg/mL) | 40
COC(=O)c1ccc(Oc2ccc(-c3csc(C)n3)cc2F)nn1 | 4.8996 | 17 (≈ 49.2 µM) | 4.83 | <4.3 | 5.6 (≈ 1.93 µg/mL) | > 100
CC(C)c1noc(N2CCC([C@H](C)Oc3cnc(-c4ccc(S(C)(=O)=O)c(F)c4)cn3)CC2)n1 | – | 13 (≈ 26.6 µM) | 6.69 | 5.2 | 6 (≈ 2.94 µg/mL) | 25
COc1ccc(CCNC(=O)C2(n3cnnn3)CCCCC2)cc1 | 3.1698 | ≥ 226 | 2.43 | 5.7 | 8 (≈ 2.64 µg/mL) | > 100
O=C(O)CCc1nc2ccccc2oc1=O | 2.3212 | 63 (≈ 287 µM) | 0.04 | <4.3 | 8 (≈ 1.75 µg/mL) | > 100
CCCCc1ccc(C(=O)Nc2nnc(S(=O)(=O)CCCC)s2)nc1 | 7.3965 | 1.5 (≈ 3.92 µM) | 6.01 | 5.6 | 10 (≈ 3.83 µg/mL) | 20
N#Cc1cccc(-c2ccc(NC[C@H]3CC[C@]4(CC3)CN(c3cccnn3)C(=O)O4)nc2)c1 | 4.9649 | 11 (≈ 25 µM) | 4.96 | 5.6 | 10 (≈ 4.41 µg/mL) | 40
CCOc1cc2ccccc2cc1C(=O)NC | 4.6549 | 64 (≈ 279 µM) | 4.43 | 5.3 | 10 (≈ 2.29 µg/mL) | > 100
Cc1ccc2c(c1)c(=O)cc(C(F)(F)F)n2CCNC(=O)c1ccccn1 | 6.1236 | 6 (≈ 16 µM) | 5.84 | 5.6 | 10 (≈ 3.75 µg/mL) | > 100
Fc1cccc(Oc2cc(C3CCCNC3)nc(-c3ccncc3)n2)c1 (configuration not stated) | 5.1281 | 64 (≈ 183 µM) | 2.9 | – | 10 (≈ 3.5 µg/mL) | 50
Cc1c(C(=O)NCCOc2ccccc2)[nH]c2c1C(=O)CCC2 | 3.8226 | 46 (≈ 147 µM) | 3.62 | 5 | 10 (≈ 3.12 µg/mL) | 100
